Experimental data as given in publication PMC4939265, “Synthesis, Molecular Modeling, and Biological Evaluation of Novel Tetrahydro-β-Carboline Hydantoin and Tetrahydro-β-Carboline Thiohydantoin Derivatives as Phosphodiesterase 5 Inhibitors” (International Journal of Medicinal Chemistry, 2011).
Like-named read-outs stand apart in the source and are kept apart here.

Tests used:
recombinant human PDE5 = target: T1, recombinant human PDE5 (Homo sapiens, UniProt O76074); experiment: IMAP fluorescence polarization phosphodiesterase assay (TAMRA-cGMP substrate); type: biochemical; details: for IC50: 10 concentrations, at least two replicates per concentration, read-out: PDE5 inhibition IC50; for inhibition at 10 µM: read-out: %PDE5 inhibition at 10 μM; for PDE5 inhibition, result in words: SAR discussion
T1 construct: purchased BPS Biosciences, San Diego, CA
Method: PDE activity was measured using a modification of the IMAP fluorescence polarization phosphodiesterase assay from Molecular Devices. The assay was modified to use tetramethylrhodamine- (TAMRA-) cGMP as substrate. PDE hydrolysis of the fluorescent labeled substrate allows it to bind the IMAP binding reagent, which results in increased FP. […] The assays were performed in 96-well microtiter plates using a reaction buffer containing 10 mM Tris-HCl (pH 7.2), 10 mM MgCl2, 0.05% NaN3, and 0.1% phosphate-free BSA as the carrier. Each well contained 20 μL of recombinant enzyme (5 units//mL, BPS Biosciences, San Diego, CA) and 10 μL test agent. The reaction was initiated by the addition of 10 μL of a substrate solution containing 50 nM TAMRA-cGMP. After incubating at room temperature for 60 minutes, the reaction was terminated by adding 120 μL of binding solution. FP was measured by a Perkin Elmer Envision plate reader.
Dose response curves were analyzed using Prism 4 software (GraphPad) to calculate IC50 values using a four-parameter logistic equation. All in vitro experiments involved dose-response analysis were repeated at least twice to confirm reproducibility of IC50 values.

[1] = screening dose 10 μM, triplicate

Row | SMILES | IC50 (recombinant human PDE5) | inhibition at 10 µM (recombinant human PDE5; [1]) | melting point | PDE5 inhibition, result in words (recombinant human PDE5) | inhibition at 10 µM (recombinant human PDE5)
1 | COC(=O)[C@H]1Cc2c([nH]c3ccccc23)[C@@H](c2ccc(OC)cc2OC)N1 [Compound 1, (1R, 3R) Methyl-1-(2,4-dimethoxyphenyl)-2,3,4,9-tetrahydro-1-H-pyrido[3,4-b]indole-3-carboxylate] | 2500 nM | 77% | 86 to 88 °C |  | 
2 | COC(=O)[C@H]1Cc2c([nH]c3ccccc23)[C@H](c2ccc(OC)cc2OC)N1 [Compound 2, (1S,3R) Methyl-1-(2,4-dimethoxyphenyl)-2,3,4,9-tetrahydro-1-H-pyrido[3,4-b]indole-3-carboxylate] |  | 63% | 146 to 147 °C |  | 
3 | COC(=O)[C@@H]1Cc2c([nH]c3ccccc23)[C@H](c2ccc(OC)cc2OC)N1 [Compound 3, (1S,3S) Methyl-1-(2,4-dimethoxyphenyl)-2,3,4,9-tetrahydro-1-H-pyrido[3,4-b]indole-3-carboxylate] |  | 55% | 88 to 90 °C |  | 
4 | COC(=O)[C@@H]1Cc2c([nH]c3ccccc23)[C@@H](c2ccc(OC)cc2OC)N1 [Compound 4, (1R,3S) Methyl-1-(2,4-dimethoxyphenyl)-2,3,4,9-tetrahydro-1-H-pyrido[3,4-b]indole-3-carboxylate] | 6400 nM | 75% | 148 to 150 °C |  | 
5 | CCN1C(=O)[C@H]2Cc3c([nH]c4ccccc34)[C@@H](c3ccc(OC)cc3OC)N2C1=O [Compound 5, (5R,11aR)-2-Ethyl-5-(2,4-dimethoxyphenyl)-5,6,11,11a-tetrahydro-1-H-imidazo[5,1-6,1]pyrido[3,4-b]indole-1,3-dione] | 360 nM | 87% | 216 to 218 °C | active PDE5 inhibitors | 
6 | CCN1C(=O)[C@H]2Cc3c([nH]c4ccccc34)[C@H](c3ccc(OC)cc3OC)N2C1=O [Compound 6, (5S,11aR)-2-Ethyl-5-(2,4-dimethoxyphenyl)-5,6,11,11a-tetrahydro-1-H-imidazo[5,1-6,1]pyrido[3,4-b]indole-1,3-dione] | 720 nM | 88% | 190 to 193 °C | active | 
7 | CCN1C(=O)[C@@H]2Cc3c([nH]c4ccccc34)[C@H](c3ccc(OC)cc3OC)N2C1=O [Compound 7, (5S,11aS)-2-Ethyl-5-(2,4-dimethoxyphenyl)-5,6,11,11a-tetrahydro-1-H-imidazo[5,1-6,1]pyrido[3,4-b]indole-1,3-dione] |  | 54% | 217 to 220 °C |  | 
8 | CCN1C(=O)[C@@H]2Cc3c([nH]c4ccccc34)[C@@H](c3ccc(OC)cc3OC)N2C1=O [Compound 8, (5R,11aS)-2-Ethyl-5-(2,4-dimethoxyphenyl)-5,6,11,11a-tetrahydro-1-H-imidazo[5,1-6,1]pyrido[3,4-b]indole-1,3-dione] | 360 nM | 97% | 192 to 195 °C | active PDE5 inhibitors | 
9 | COc1ccc([C@@H]2c3[nH]c4ccccc4c3C[C@@H]3C(=O)N(C(C)(C)C)C(=O)N23)c(OC)c1 [Compound 9, (5R,11aR)-2-Tertiarybutyl-5-(2,4-dimethoxyphenyl)-5,6,11,11a-tetrahydro-1-H-imidazo[5,1-6,1]pyrido[3,4-b]indole-1,3-dione] | 2400 nM | 83% | 108 to 110 °C | active PDE5 inhibitors | 
10 | COc1ccc([C@H]2c3[nH]c4ccccc4c3C[C@@H]3C(=O)N(C(C)(C)C)C(=O)N23)c(OC)c1 [Compound 10, (5S,11aR)-2-Tertiarybutyl-5-(2,4-dimethoxyphenyl)-5,6,11,11a-tetrahydro-1-H-imidazo[5,1-6,1]pyrido[3,4-b]indole-1,3-dione] |  | 68% | 191 to 193 °C |  | 
11 | COc1ccc([C@H]2c3[nH]c4ccccc4c3C[C@H]3C(=O)N(C(C)(C)C)C(=O)N23)c(OC)c1 [Compound 11, (5S,11aS)-2-Tertiarybutyl-5-(2,4-dimethoxyphenyl)-5,6,11,11a-tetrahydro-1-H-imidazo[5,1-6,1]pyrido[3,4-b]indole-1,3-dione] |  | 46% | 103 to 106 °C |  | 
12 | COc1ccc([C@@H]2c3[nH]c4ccccc4c3C[C@H]3C(=O)N(C(C)(C)C)C(=O)N23)c(OC)c1 [Compound 12, (5R,11aS)-2-Tertiarybutyl-5-(2,4-dimethoxyphenyl)-5,6,11,11a-tetrahydro-1-H-imidazo[5,1-6,1]pyrido[3,4-b]indole-1,3-dione] | 550 nM | 87% | 193 to 195 °C | active PDE5 inhibitors | 
13 | COc1ccc([C@@H]2c3[nH]c4ccccc4c3C[C@@H]3C(=O)N(c4ccc(Cl)cc4)C(=O)N23)c(OC)c1 [Compound 13, (5R,11aR)-2-(P-Chlorophenyl)-5-(2,4-dimethoxyphenyl)-5,6,11,11a-tetrahydro-1H-imidazo[5,1-6,1]pyrido[3,4-b]indole-1,3-dione] |  | 63% | 134 to 136 °C |  | 
14 | COc1ccc([C@H]2c3[nH]c4ccccc4c3C[C@@H]3C(=O)N(c4ccc(Cl)cc4)C(=O)N23)c(OC)c1 [Compound 14, (5S,11aR)-2-(P-Chlorophenyl)-5-(2,4-dimethoxyphenyl)-5,6,11,11a-tetrahydro-1-H-imidazo[5,1-6,1]pyrido[3,4-b]indole-1,3-dione] |  | 60% | 214 to 216 °C |  | 
15 | COc1ccc([C@H]2c3[nH]c4ccccc4c3C[C@H]3C(=O)N(c4ccc(Cl)cc4)C(=O)N23)c(OC)c1 [Compound 15, (5S,11aS)-2-(P-Chlorophenyl)-5-(2,4-dimethoxyphenyl)-5,6,11,11a-tetrahydro-1-H-imidazo[5,1-6,1]pyrido[3,4-b]indole-1,3-dione] |  | 35% | 135 to 138 °C |  | 
16 | COc1ccc([C@@H]2c3[nH]c4ccccc4c3C[C@H]3C(=O)N(c4ccc(Cl)cc4)C(=O)N23)c(OC)c1 [Compound 16, (5R,11aS)-2-(P-Chlorophenyl)-5-(2,4-dimethoxyphenyl)-5,6,11,11a-tetrahydro-1-H-imidazo[5,1-6,1]pyrido[3,4-b]indole-1,3-dione] |  | 63% | 212 to 215 °C |  | 
17 | COc1ccc([C@@H]2c3[nH]c4ccccc4c3C[C@H]3C(=O)N(C)C(=S)N23)c(OC)c1 [Compound 17, (5R,11aS)-2-Methyl-1-oxo-5-(2,4-dimethoxyphenyl)-5,6,11,11a-tetrahydro-1H-imidazo[5,1-6,1]pyrido[3,4-b]indole-3(2H)-thione] |  | 29% | 188 to 191 °C |  | 
18 | COc1ccc([C@H]2c3[nH]c4ccccc4c3C[C@@H]3C(=O)N(C)C(=S)N23)c(OC)c1 [Compound 18, (5S,11aR)-2-Methyl-1-oxo-5-(2,4-dimethoxyphenyl)-5,6,11,11a-tetrahydro-1-H-imidazo[5,1-1,6]pyrido[3,4-b]indole-3(2H)-thione] |  | 23% | 188 to 190 °C |  | 
19 | C=CCN1C(=O)[C@@H]2Cc3c([nH]c4ccccc34)[C@@H](c3ccc(OC)cc3OC)N2C1=S [Compound 19, (5R,11aS)-2-Allyl-1-oxo-5-(2,4-dimethoxyphenyl)-5,6,11,11a-tetrahydro-1H-imidazo[5,1-1,6]pyrido[3,4-b]indole-3(2H)-thione] | 560 nM | 87% | 224 to 227 °C |  | 
20 | C=CCN1C(=O)[C@H]2Cc3c([nH]c4ccccc34)[C@H](c3ccc(OC)cc3OC)N2C1=S [Compound 20, (5S,11aR)-2-Allyl-1-oxo-5-(2,4-dimethoxyphenyl)-5,6,11,11a-tetrahydro-1H-imidazo[5,1-6,6,1]pyrido[3,4-b]indole-3(2H)-thione] |  | 58% | 224 to 227 °C |  | 
21 | CN1CC(=O)N2[C@H](c3ccc4c(c3)OCO4)c3[nH]c4ccccc4c3C[C@@H]2C1=O [Tadalafil, tadalafil, reference compound] |  |  |  |  | 99%
